System: HL-60
Assay: Antiproliferative activity against human HL60 cells after 72 hrs by MTT assay
Type: functional, cell-based
Details: HL-60, 72 h

CN(C)C(=S)NN=C(c1ccccn1)c1ccccn1
IC50: 10 nM

Reference: ChEMBL document CHEMBL1139363, “Iron chelators of the dipyridylketone thiosemicarbazone class: precomplexation and transmetalation effects on anticancer activity” (J Med Chem, 2009)
